In patent US20250311722A1, “IMPROVED BIOCIDE” (Purgos ApS, priority 2022, published 2025):
“And” between values parts separate entries of the source, which are not always exact repeats. Equal values may be shown once.

Legend:
[1] = system: Gloeophyllum trabeum. BAM Ebw. 109; assay: EN 113 test against wood destroying basidiomycetes; assay type: cell-based; settings: for Corrected mass loss / Mass loss: single blocks; for Corrected mass loss, Mean / Mass loss, Mean: mean of blocks
Text: EN 113, 2020: Durability of wood and wood-based products-Test method against wood destroying basidiomycetes. Assessment of biocidal efficacy of wood preservatives.
Assessment of the results shown in table XIV.: The protection provided for the wood by the test preservative at the given concentration is deemed to be adequate if: • a) the corrected mean loss is less than 3.0% (m/m) • b) not more than one specimen has suffered a loss in mass greater than 3.0% (m/m) but less than 5.0% (m/m)
The impregnation process was carried out on 24-03-2021 with the following conditions:
Pre-vacuum at 0.1 bar for 30 minutes.
Pressure of 13 bars for 60 minutes.
Scots pine sapwood (Pinus sylvestris L.) for brown rot fungi with an average density of 589 kg/m3.
4 weeks according to EN 113 at 65% RH and 20° C. until stable mass was obtained.
Ionising radiation (2× 25 kGy).

bacteria = assay: NBDA in different PVB dispersions at 32° C., ATP analysis (LuminUltra); assay type: cell-based; design: bacteria count 6 mo after adding NBDA / bacteria count 9 mo after adding NBDA / bacteria count 1 d after adding NBDA / bacteria count 1 wk after adding NBDA / bacteria count 1 mo after adding NBDA / bacteria count 3 mo after adding NBDA / bacteria count after 4 mo after addition of NBDA / bacteria count after 6 mo after addition of NBDA: unit not given here; settings: 0.5% NBDA; for bacteria count after 4 mo after addition of NBDA / bacteria count after 4 wk after addition of NBDA / bacteria count after 6 mo after addition of NBDA / bacteria count after 8 wk after addition of NBDA / bacteria count after 9 mo after addition of NBDA / bacteria count after 12 mo after addition of NBDA: long term
Procedure: The amines selected from stock samples was made from factory prepared stock and sealed solutions delivered in technical quality (95-99.9%). […] Tertiary amine, water and PVB-dispersion was mechanically stirred in IKA vertical fixed blade stirrer for sampling in 2-5 minutes. Conditions was industrial clean, meaning no special precautions was taken to prevent contamination, except normal cleanliness and between operations dishwashing procedures. Working temperatures was 20-25 degre Celsius, and all incubations was made in thermostatic 32-degree Celsius incubator ovens for bottled flasks and open petri dishes. […] The protocol is provided by LuminUltra Technologies. Basically all tested dispersions are manufactured in same way, with only differences in additives, and the variations of origin/source of the waste material (See Example 1). However the specification of the SharkDispersions-all have same basic composition since the stability of the dispersion forces this. The in situ contamination of the production batches may also vary in handling and different storage methods in flasks, IBC's and tanks. In all production the dispersion before treated with tertiary amine is pasteurized due to the general level of production temperatures +90 degrees for several minutes. The biocidal effectivity of NBDA in different PVB dispersions was measured as explained above.

[2] = PVB dispersion FX2, 32° C., with 0.5% peroxide
[3] = PVB dispersion FX2, 32° C., without peroxide
[4] = PVB dispersion FX6, 32° C., with 0.5% peroxide
[5] = PVB dispersion FX6, 32° C., without peroxide
[6] = PVB dispersion SX, 32° C., with 0.5% peroxide
[7] = PVB dispersion SX, 32° C., without peroxide
[8] = PVB dispersion WX2s, 32° C., with 0.5% peroxide
[9] = PVB dispersion WX2s, 32° C., without peroxide
[10] = PVB dispersion WX, 32° C., with 0.5% peroxide
[11] = PVB dispersion WX, 32° C., without peroxide

SMILES: CCCCN(CCO)CCO [NBDA, N-butyldiethanolamine]
- Toxic value, Retention of product ([1]; Scots pine sapwood): 6.85-10.03 kg/m^3
- Toxic value, Solution conc. ([1]; Scots pine sapwood): 1.01-1.43 % w/w
- fungicide for preventing wood destruction ([1]; concentrations of 0.36%, 0.51%, 0.72%, 1.01% and 1.43%): effective as a fungicide
- Corrected mass loss ([1]; solution conc. 0.36% w/w): 44.8% and 30.6% and 32.5% and 33.8%
- Mass loss ([1]; solution conc. 0.36% w/w): 45.0% and 30.8% and 32.7% and 34.0%
- Corrected mass loss, Mean ([1]; solution conc. 0.36 % w/w): 35.4%
- Mass loss, Mean ([1]; solution conc. 0.36 % w/w): 35.6%
- Corrected mass loss ([1]; solution conc. 0.51% w/w): 34.8% and 29.4% and 36.4% and 31.1%
- Mass loss ([1]; solution conc. 0.51% w/w): 35.0% and 29.6% and 36.6% and 31.3%
- Corrected mass loss, Mean ([1]; solution conc. 0.51 % w/w): 32.9%
- Mass loss, Mean ([1]; solution conc. 0.51 % w/w): 33.1%
- Corrected mass loss ([1]; solution conc. 0.72% w/w): 30.9% and 33.1% and 34.2% and 26.5%
- Mass loss ([1]; solution conc. 0.72% w/w): 30.6% and 32.7% and 33.8% and 26.1%
- Corrected mass loss, Mean ([1]; solution conc. 0.72 % w/w): 31.2%
- Mass loss, Mean ([1]; solution conc. 0.72 % w/w): 30.8%
- Corrected mass loss, Mean ([1]; solution conc. 1.01 % w/w): 11.4%
- Mass loss, Mean ([1]; solution conc. 1.01 % w/w): 11.0%
- Corrected mass loss ([1]; solution conc. 1.43% w/w): 0.7% and 0.3% and 2.0%
- Mass loss ([1]; solution conc. 1.43% w/w): −0.4% and −0.8% and 1.0% and 0.9%
- Corrected mass loss, Mean ([1]; solution conc. 1.43 % w/w): 1.3%
- Mass loss, Mean ([1]; solution conc. 1.43 % w/w): 0.2%
- bacteria count 1 mo after adding NBDA (bacteria; [2]): 22
- bacteria count 1 wk after adding NBDA (bacteria; [2]): 9.9
- bacteria count 3 mo after adding NBDA (bacteria; [2]): 3
- bacteria count 1 d after adding NBDA (bacteria; [2]): 17.6
- bacteria count 1 mo after adding NBDA (bacteria; [3]): 77.1
- bacteria count 1 wk after adding NBDA (bacteria; [3]): 1.8
- bacteria count 3 mo after adding NBDA (bacteria; [3]): 64
- bacteria count 6 mo after adding NBDA (bacteria; [3]): 15.5
- bacteria count 1 d after adding NBDA (bacteria; [3]): 7.7
- bacteria count 1 mo after adding NBDA (bacteria; [4]): 0.93
- bacteria count 1 wk after adding NBDA (bacteria; [4]): 239
- bacteria count 3 mo after adding NBDA (bacteria; [4]): 28
- bacteria count 6 mo after adding NBDA (bacteria; [4]): 62
- bacteria count 9 mo after adding NBDA (bacteria; [4]): 15.4
- bacteria count 1 d after adding NBDA (bacteria; [4]): 31.7
- bacteria count 1 mo after adding NBDA (bacteria; [5]): 0.93
- bacteria count 1 wk after adding NBDA (bacteria; [5]): 25
- bacteria count 3 mo after adding NBDA (bacteria; [5]): 1.4
- bacteria count 6 mo after adding NBDA (bacteria; [5]): 1.1
- bacteria count 9 mo after adding NBDA (bacteria; [5]): 1.51
- bacteria count 1 d after adding NBDA (bacteria; [5]): 48.5
- bacteria count 1 mo after adding NBDA (bacteria; [6]): 24.2
- bacteria count 1 wk after adding NBDA (bacteria; [6]): 48.1
- bacteria count 3 mo after adding NBDA (bacteria; [6]): 54.6
- bacteria count 6 mo after adding NBDA (bacteria; [6]): 53
- bacteria count 9 mo after adding NBDA (bacteria; [6]): 21.9
- bacteria count 1 d after adding NBDA (bacteria; [6]): 24.3
- bacteria count 1 mo after adding NBDA (bacteria; [7]): 19.5
- bacteria count 1 wk after adding NBDA (bacteria; [7]): 42.1
- bacteria count 3 mo after adding NBDA (bacteria; [7]): 26
- bacteria count 6 mo after adding NBDA (bacteria; [7]): 9
- bacteria count 9 mo after adding NBDA (bacteria; [7]): 15.7
- bacteria count 1 d after adding NBDA (bacteria; [7]): 17.2
- bacteria count 1 mo after adding NBDA (bacteria; [8]): 74.9
- bacteria count 1 wk after adding NBDA (bacteria; [8]): 4.5
- bacteria count 3 mo after adding NBDA (bacteria; [8]): 28.9
- bacteria count 6 mo after adding NBDA (bacteria; [8]): 7.8
- bacteria count 1 d after adding NBDA (bacteria; [8]): 29.7
- bacteria count 1 mo after adding NBDA (bacteria; [9]): 25.2
- bacteria count 1 wk after adding NBDA (bacteria; [9]): 7.2
- bacteria count 3 mo after adding NBDA (bacteria; [9]): 13
- bacteria count 6 mo after adding NBDA (bacteria; [9]): 39.9
- bacteria count 1 d after adding NBDA (bacteria; [9]): 17.6
- bacteria count 1 mo after adding NBDA (bacteria; [10]): 83.4
- bacteria count 1 wk after adding NBDA (bacteria; [10]): 79
- bacteria count 3 mo after adding NBDA (bacteria; [10]): 13.3
- bacteria count 6 mo after adding NBDA (bacteria; [10]): 63.8
- bacteria count 9 mo after adding NBDA (bacteria; [10]): 35
- bacteria count 1 d after adding NBDA (bacteria; [10]): 4.2
- bacteria count 1 mo after adding NBDA (bacteria; [11]): 31.6
- bacteria count 1 wk after adding NBDA (bacteria; [11]): 180
- bacteria count 3 mo after adding NBDA (bacteria; [11]): 7.4
- bacteria count 6 mo after adding NBDA (bacteria; [11]): 11.2
- bacteria count 9 mo after adding NBDA (bacteria; [11]): 57.7
- bacteria count 1 d after adding NBDA (bacteria; [11]): 110
- bacteria count after 4 mo after addition of NBDA (bacteria; PVB dispersion FX1, 32° C.): 10.1
- bacteria count after 4 wk after addition of NBDA (bacteria; PVB dispersion FX1, 32° C.): 3.7
- bacteria count after 6 mo after addition of NBDA (bacteria; PVB dispersion FX1, 32° C.): 1
- bacteria count after 8 wk after addition of NBDA (bacteria; PVB dispersion FX1, 32° C.): 18.5
- bacteria count after 9 mo after addition of NBDA (bacteria; PVB dispersion FX1, 32° C.): 34
- bacteria count after 12 mo after addition of NBDA (bacteria; PVB dispersion FX1, 32° C.): 2.3
- bacteria count after 4 mo after addition of NBDA (bacteria; PVB dispersion FX2, 32° C.): 13.1
- bacteria count after 4 wk after addition of NBDA (bacteria; PVB dispersion FX2, 32° C.): 12.4
- bacteria count after 6 mo after addition of NBDA (bacteria; PVB dispersion FX2, 32° C.): 6.9
- bacteria count after 8 wk after addition of NBDA (bacteria; PVB dispersion FX2, 32° C.): 4.6
- bacteria count after 9 mo after addition of NBDA (bacteria; PVB dispersion FX2, 32° C.): 67.9
- bacteria count after 12 mo after addition of NBDA (bacteria; PVB dispersion FX2, 32° C.): 15.6
- bacteria count after 4 mo after addition of NBDA (bacteria; PVB dispersion FX6, 32° C.): 9.1
- bacteria count after 4 wk after addition of NBDA (bacteria; PVB dispersion FX6, 32° C.): 64.3
- bacteria count after 6 mo after addition of NBDA (bacteria; PVB dispersion FX6, 32° C.): 52.1
- bacteria count after 8 wk after addition of NBDA (bacteria; PVB dispersion FX6, 32° C.): 12.1
- bacteria count after 9 mo after addition of NBDA (bacteria; PVB dispersion FX6, 32° C.): 7.3
- bacteria count after 12 mo after addition of NBDA (bacteria; PVB dispersion FX6, 32° C.): 367
- bacteria count after 4 mo after addition of NBDA (bacteria; PVB dispersion WX1, 32° C.): 8.1
- bacteria count after 4 wk after addition of NBDA (bacteria; PVB dispersion WX1, 32° C.): 38.4
- bacteria count after 6 mo after addition of NBDA (bacteria; PVB dispersion WX1, 32° C.): 5
- bacteria count after 8 wk after addition of NBDA (bacteria; PVB dispersion WX1, 32° C.): 4.6
- bacteria count after 9 mo after addition of NBDA (bacteria; PVB dispersion WX1, 32° C.): 8.9
- bacteria count after 12 mo after addition of NBDA (bacteria; PVB dispersion WX1, 32° C.): 16.8
- bacteria count after 4 mo after addition of NBDA (bacteria; PVB dispersion WX25, 32° C.): 68
- bacteria count after 4 wk after addition of NBDA (bacteria; PVB dispersion WX25, 32° C.): 94
- bacteria count after 6 mo after addition of NBDA (bacteria; PVB dispersion WX25, 32° C.): 170
- bacteria count after 8 wk after addition of NBDA (bacteria; PVB dispersion WX25, 32° C.): 82
- bacteria count after 9 mo after addition of NBDA (bacteria; PVB dispersion WX25, 32° C.): 238
- bacteria count after 12 mo after addition of NBDA (bacteria; PVB dispersion WX25, 32° C.): 181
